This is an account of results in ChEMBL document CHEMBL1201862, “PubChem BioAssay data set” (2004).

For one data set, the target named is T1, Caspase-3 (Homo sapiens, UniProt P42574).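 Also: Dose-response selectivity test against caspase-3 for candidate inhibitors of sentrin-specific proteases (SENPs).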
T1 sequence (P42574 whole entry): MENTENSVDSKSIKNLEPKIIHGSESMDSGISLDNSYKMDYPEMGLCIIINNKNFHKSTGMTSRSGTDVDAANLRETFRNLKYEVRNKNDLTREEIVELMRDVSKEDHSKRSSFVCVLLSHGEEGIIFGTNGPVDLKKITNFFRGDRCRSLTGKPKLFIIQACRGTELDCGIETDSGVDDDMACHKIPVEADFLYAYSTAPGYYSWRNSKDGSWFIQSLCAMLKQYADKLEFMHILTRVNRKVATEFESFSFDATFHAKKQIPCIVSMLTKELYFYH
It is filed as functional.

Data set [1] has as its target T2, Sentrin-specific protease 7 (Homo sapiens, UniProt Q9BQF6).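 Also: Luminescence-based dose-response confirmation of ultra-high-throughput screening hits, measuring inhibition of SENP7.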
T2 sequence (Q9BQF6 whole entry): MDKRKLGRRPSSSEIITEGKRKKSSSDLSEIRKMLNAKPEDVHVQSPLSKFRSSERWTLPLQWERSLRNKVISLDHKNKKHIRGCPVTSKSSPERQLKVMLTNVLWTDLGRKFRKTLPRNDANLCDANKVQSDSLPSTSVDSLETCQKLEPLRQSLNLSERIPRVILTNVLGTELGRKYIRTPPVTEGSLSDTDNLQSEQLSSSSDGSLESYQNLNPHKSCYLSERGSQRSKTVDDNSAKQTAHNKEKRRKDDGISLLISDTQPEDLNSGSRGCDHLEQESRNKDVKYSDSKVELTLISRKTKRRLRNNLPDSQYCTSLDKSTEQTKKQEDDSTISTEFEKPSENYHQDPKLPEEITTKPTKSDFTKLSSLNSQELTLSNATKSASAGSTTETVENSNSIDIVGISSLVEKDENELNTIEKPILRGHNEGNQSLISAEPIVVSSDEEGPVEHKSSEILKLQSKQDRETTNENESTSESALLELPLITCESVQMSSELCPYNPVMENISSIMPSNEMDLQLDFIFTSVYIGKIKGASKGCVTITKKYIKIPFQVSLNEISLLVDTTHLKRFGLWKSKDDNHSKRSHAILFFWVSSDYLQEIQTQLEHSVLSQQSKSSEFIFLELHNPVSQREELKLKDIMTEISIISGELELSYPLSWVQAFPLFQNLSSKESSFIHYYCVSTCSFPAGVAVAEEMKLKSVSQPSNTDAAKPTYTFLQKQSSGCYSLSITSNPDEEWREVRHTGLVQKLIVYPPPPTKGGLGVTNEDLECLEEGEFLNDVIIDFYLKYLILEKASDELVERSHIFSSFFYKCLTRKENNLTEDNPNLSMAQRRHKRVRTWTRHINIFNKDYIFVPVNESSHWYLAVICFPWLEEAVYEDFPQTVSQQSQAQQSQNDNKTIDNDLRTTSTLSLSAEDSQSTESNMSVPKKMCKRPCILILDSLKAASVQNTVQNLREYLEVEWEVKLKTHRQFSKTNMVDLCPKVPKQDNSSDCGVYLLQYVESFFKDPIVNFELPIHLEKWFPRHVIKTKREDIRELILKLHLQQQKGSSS
The class given is functional.

Data set [2] deals with T3, Sentrin-specific protease 6 (Homo sapiens, UniProt Q9GZR1).
T3 sequence (Q9GZR1 whole entry): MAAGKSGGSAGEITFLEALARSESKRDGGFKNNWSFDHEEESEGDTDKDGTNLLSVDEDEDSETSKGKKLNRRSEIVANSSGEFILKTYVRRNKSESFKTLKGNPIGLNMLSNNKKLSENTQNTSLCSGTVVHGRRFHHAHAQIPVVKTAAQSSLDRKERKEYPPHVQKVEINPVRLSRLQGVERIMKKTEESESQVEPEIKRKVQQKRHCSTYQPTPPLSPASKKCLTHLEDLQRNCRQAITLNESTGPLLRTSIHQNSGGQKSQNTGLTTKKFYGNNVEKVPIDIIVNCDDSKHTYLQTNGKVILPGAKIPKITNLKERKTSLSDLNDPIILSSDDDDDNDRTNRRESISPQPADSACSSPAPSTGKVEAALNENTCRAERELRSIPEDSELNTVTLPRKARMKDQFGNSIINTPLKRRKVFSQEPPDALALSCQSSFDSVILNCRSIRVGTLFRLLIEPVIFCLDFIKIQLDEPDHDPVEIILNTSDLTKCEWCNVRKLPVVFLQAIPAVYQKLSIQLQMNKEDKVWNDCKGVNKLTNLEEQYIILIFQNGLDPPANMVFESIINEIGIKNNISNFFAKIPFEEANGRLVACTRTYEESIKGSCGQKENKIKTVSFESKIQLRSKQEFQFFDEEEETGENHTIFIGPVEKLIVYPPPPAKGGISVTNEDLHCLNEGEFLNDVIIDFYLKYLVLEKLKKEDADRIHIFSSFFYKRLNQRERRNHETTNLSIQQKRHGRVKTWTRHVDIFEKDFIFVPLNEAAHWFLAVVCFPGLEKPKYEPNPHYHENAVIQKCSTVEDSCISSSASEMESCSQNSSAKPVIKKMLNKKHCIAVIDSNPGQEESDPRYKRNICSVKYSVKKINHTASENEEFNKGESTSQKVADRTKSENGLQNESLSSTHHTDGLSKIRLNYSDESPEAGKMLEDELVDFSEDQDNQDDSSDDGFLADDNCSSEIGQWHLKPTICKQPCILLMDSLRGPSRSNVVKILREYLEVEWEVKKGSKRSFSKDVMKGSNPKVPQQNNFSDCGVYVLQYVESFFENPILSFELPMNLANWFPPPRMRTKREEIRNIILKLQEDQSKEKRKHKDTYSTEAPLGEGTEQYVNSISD
It is filed as functional.

The target in data set [3] is T4, Sentrin-specific protease 8 (Homo sapiens, UniProt Q96LD8).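 Also: luminescence read-out of SENP8 inhibition, dose-response confirmation following an ultra-high-throughput screen.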
T4 sequence (Q96LD8 whole entry): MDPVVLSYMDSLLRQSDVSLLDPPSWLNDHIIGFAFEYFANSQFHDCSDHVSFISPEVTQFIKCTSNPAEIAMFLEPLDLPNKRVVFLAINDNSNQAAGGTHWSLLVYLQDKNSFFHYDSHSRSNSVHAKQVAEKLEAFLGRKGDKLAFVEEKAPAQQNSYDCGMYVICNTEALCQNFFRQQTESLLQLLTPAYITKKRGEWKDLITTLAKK
The class given is functional.

The nature of data set [4]: A549 cell cytotoxicity, dose response, cytotoxicity control, plate reader, cherry-pick, antagonist series (AID 743412). The class given is functional, cell-based.
A short description of data set [5]: toxicity toward HepG2 liver cells – cell-based, plate reader, cherry-pick, antagonist series, cytotoxicity control, dose response (AID 743416). The class given is functional.
Data set [6] can be described thus: blockers of bursicon-stimulated LGR2 cAMP reporter – cell-based, HEK293, CRE-luciferase reporter, cherry pick, set 2, dose response (AID 743343).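 Also: transfected cells were stimulated with diluted bursicon conditioned medium after compound addition.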 It is filed as functional.
Data set [7] in a line: blockade of melanocortin 4 receptor signaling – cell-based, plate reader, cherry pick, counter-screen for LGR2 antagonist project, dose response (AID 743444).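 Also: transfected HEK 293 cells stimulated with alpha-MSH peptide; potency of inhibitors of the alpha-MSH evoked signal.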 It is filed as functional.
The nature of data set [8]: viability loss in HEK293 cells – cell-based, plate reader, cherry-picked samples, cytotoxicity control, dose response (AID 743446). It is filed as functional.
Data set [9] is described as follows: viability loss in HeLa cells – cytotoxicity control for MgcRacGAP inhibitor project, dose response (AID 624300). The class given is functional.
For data set [10], the target named is T5, Rac GTPase-activating protein 1 (Homo sapiens, UniProt Q9H0H5).
T5 sequence (Q9H0H5 whole entry): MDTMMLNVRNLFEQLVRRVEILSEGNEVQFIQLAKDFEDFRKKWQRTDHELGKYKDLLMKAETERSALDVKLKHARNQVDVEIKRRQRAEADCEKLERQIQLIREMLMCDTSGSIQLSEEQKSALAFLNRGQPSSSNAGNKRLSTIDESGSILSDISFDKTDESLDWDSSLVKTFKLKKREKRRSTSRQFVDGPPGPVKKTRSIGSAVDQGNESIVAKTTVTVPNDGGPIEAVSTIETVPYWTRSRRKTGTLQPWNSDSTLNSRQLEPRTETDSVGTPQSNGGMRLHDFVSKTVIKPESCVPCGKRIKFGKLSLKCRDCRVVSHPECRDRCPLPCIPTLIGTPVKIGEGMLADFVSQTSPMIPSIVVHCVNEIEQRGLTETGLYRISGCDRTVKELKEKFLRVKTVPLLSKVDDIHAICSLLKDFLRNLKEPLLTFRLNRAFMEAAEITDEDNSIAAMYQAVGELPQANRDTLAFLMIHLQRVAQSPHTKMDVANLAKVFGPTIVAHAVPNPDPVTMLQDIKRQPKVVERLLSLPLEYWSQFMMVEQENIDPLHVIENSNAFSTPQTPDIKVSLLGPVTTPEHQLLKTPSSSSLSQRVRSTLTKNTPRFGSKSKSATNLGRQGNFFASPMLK
Kind of data set: blockers of MgcRacGAP-driven Rac1 GTP hydrolysis – biochemical, ADP Hunter fluorescence, primary and confirmatory, confirmation (AID 624330). The class given is functional.

Data set [11] is described as follows: HIV-1 Vif–A3G interaction blockers – biochemical, TR-FRET, GST-Vif 1-94, biotin-A3G peptide, dose response retest, primary screen (AID 1117319).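 Also: TR-FRET signal of purified GST-Vif binding a biotinylated A3G peptide; inhibitors lower the FRET signal by blocking Vif and A3G binding.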 The class given is functional. (In general: TR-FRET usually uses a lanthanide donor and a delayed reading to cut background.)
For a further data set, the system named is Vero. Kind of data set: viability of Vero cells under compound – cytotoxicity control for flavivirus capping enzyme inhibitors (AID 588742). The class given is functional. As to conditions: Chlorocebus sabaeus.
The nature of data set [12]: viability loss in THP-1 monocytes – THP-1 cells, cytotoxicity control for Vif-APOBEC3G degradation inhibitor project, dose response (AID 1117359). It is filed as functional. The conditions noted are these: THP-1.
Data set [13] is described as follows: NIH-3T3 fibroblast cytotoxicity, dose response, cytotoxicity control, cell-based, fluorescence, Alamar Blue, secondary assay (AID 2327).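 Also: NIH-3T3 mouse fibroblasts cultured with fluconazole at 8 µg/mL.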 The class given is functional. On the technique in general: Resazurin is reduced to fluorescent resorufin, in cell work by metabolically active cells.
The nature of data set [14]: fluconazole-exposed Candida albicans growth modulators – fluorescence, retest, confirmation (AID 2467). The class given is functional, cell-based.
The target of another data set is Albumin (Bos taurus, UniProt P02769). Description: Counterscreen for inhibitors of T-cell receptor (TCR)-CD3 interaction: Fluorescence-based biochemical high throughput dose response assay to identify inhibitors of T-cell receptor (TCR)-CD3 interaction using a TAMRA-labeled BSA probe. It is filed as functional.
Chain of Albumin (P02769 whole entry): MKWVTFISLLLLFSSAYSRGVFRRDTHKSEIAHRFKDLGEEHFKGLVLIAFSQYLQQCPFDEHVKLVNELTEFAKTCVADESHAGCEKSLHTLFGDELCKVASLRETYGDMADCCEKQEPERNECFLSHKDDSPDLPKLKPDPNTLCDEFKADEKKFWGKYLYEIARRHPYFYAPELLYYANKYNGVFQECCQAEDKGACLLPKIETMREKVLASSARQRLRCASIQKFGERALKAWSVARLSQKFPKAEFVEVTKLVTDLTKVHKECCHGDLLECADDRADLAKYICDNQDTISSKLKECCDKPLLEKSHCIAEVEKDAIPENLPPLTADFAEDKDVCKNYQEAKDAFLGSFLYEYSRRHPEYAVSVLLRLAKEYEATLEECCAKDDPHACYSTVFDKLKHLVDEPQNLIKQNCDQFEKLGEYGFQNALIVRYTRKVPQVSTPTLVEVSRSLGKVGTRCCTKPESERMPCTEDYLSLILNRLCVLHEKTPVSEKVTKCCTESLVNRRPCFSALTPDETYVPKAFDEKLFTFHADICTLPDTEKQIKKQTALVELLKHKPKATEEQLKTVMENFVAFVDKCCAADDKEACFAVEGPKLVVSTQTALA
For another data set, the target named is T6, Cytochrome P450 1A2 (Homo sapiens, UniProt P05177).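 Also: PubChem cytochrome P450 panel assay, CYP1A2 panel member.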
T6 sequence (P05177 whole entry): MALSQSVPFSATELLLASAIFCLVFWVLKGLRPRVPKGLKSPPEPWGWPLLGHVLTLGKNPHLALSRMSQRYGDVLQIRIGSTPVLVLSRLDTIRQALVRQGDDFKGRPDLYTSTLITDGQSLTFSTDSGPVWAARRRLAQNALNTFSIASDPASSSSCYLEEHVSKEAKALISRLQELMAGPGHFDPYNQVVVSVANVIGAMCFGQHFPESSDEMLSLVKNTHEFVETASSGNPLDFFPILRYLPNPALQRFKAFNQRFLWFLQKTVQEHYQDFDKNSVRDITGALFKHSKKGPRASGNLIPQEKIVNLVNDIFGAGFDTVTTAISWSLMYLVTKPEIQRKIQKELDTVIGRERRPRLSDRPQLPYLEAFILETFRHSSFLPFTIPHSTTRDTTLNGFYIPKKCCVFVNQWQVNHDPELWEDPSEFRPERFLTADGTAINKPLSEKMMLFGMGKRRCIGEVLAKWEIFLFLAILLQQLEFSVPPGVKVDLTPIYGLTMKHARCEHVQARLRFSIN

For a further data set, the target named is Cytochrome P450 3A4 (Homo sapiens, UniProt P08684).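 Also: CYP3A4 tested as one member of a cytochrome P450 panel screen.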
Chain of Cytochrome P450 3A4 (P08684 whole entry): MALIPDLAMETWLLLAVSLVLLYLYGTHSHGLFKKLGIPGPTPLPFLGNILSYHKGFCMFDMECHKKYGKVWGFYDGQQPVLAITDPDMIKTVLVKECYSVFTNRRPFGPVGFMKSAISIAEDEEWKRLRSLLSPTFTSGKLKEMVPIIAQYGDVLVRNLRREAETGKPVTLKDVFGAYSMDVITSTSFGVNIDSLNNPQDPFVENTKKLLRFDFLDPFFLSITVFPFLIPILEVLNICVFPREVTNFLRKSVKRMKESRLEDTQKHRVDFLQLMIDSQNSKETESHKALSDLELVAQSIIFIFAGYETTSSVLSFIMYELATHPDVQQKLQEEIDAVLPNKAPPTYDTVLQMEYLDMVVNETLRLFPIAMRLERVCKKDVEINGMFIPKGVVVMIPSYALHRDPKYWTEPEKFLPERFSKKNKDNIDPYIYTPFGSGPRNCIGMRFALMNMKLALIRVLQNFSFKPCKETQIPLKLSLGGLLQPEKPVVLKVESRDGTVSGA
A further data set addresses Cytochrome P450 2C9 (Homo sapiens, UniProt P11712).

Calls of active or inactive are those of the source. A value given as a limit tells only on which side of the number the result lay.

Chain of Cytochrome P450 2C9 (P11712 whole entry): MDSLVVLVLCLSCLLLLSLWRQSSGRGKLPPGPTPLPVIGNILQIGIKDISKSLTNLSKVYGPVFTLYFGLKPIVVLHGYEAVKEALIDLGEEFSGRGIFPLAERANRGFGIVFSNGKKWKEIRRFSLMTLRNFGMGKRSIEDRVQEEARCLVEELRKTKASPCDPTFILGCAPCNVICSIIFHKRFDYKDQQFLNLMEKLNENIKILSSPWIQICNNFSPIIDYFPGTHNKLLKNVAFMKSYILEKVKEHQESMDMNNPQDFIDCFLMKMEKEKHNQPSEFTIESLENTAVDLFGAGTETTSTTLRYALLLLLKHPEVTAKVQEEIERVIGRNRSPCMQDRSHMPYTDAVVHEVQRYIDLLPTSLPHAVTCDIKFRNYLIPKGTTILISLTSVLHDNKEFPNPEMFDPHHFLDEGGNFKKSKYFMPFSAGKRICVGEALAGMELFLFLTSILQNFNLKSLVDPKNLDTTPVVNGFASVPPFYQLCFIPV

Take `Cn1c(-c2ccccc2)cc2onc(-c3ccccc3)c2c1=O`: the 50% inhibitory concentration (IC50) on Caspase-3 was 2.4 µM (active); in data set [1], 1.14 µM (active); in data set [2], 1.51 µM (active); in data set [3], 3.11 µM (active). In addition, the AC50 in [4] was > 52 µM (inactive); in data set [5], 34.4 µM (active); in [6] it was 3.08 µM (active); in data set [7] it was 3.66 µM (active); in [8], 51.9 µM (active).
With `Cc1cc(C)n(CC(O)CN2c3ccccc3Sc3ccccc32)n1` (centres undefined), in [9], the CC50 is 100 µM (active). Moreover, the half-maximal inhibitory concentration (IC50) in data set [10] is 82.6 µM (active); in data set [11], > 100 µM (active).
Take `CCOc1cccc(CNc2ccc(O)cc2)c1OCc1ccccc1Cl`: the CC50 in the data set on Vero is > 40 µM (active); in [12] it was 23 µM (active).
As for `Cc1ccc(NC(=O)CSc2nnc(C3CCCCC3)n2N)cc1F`, the IC50 in data set [11] was > 100 µM (active).
On the same count and under the same terms, with `Cc1ccc(-c2csc(NC(=O)c3ccc(-c4ccccc4)cc3)n2)o1` the figure was > 100 µM (active).
As to `O=C(OC(C(=O)NCc1cccs1)c1ccccc1Cl)c1ccco1` (centres undefined), in data set [12], the half-maximal cytotoxic concentration (CC50) is > 40 µM (active).
For the compound `O=C(NNC(=O)c1ccccc1O)c1ccc(-c2ccc([N+](=O)[O-])cc2)o1`, the EC50 was > 150 µM (inactive) in data set [13] and > 38 µM (not active) in [14]. Further, the IC50 at Albumin is > 94.1 µM (inactive). For the same compound, in data set [12], the CC50 is 15.3 µM (active).
On to `COc1ccccc1C(=O)C1CCCN(Cc2ccc3c(c2)OCCO3)C1` (centres undefined), for which the CC50 in data set [12] was > 40 µM (active).
Turning to `C/C(O)=C1/C(=O)N(C)C(=S)N(c2ccccc2)C1=O`, in [11], the IC50 was > 100 µM (active).
`CCN(CC)C(=O)CCNS(=O)(=O)c1ccc(C)cc1`: in data set [11], the IC50 is > 100 µM (active). Besides, the AC50 is 28.2 µM (inconclusive) at Cytochrome P450 1A2, 25.1 µM (inconclusive) at Cytochrome P450 3A4 and “inconclusive” on Cytochrome P450 2C9.
On to `COC(=O)Cc1cc(O)n2nc(C)cc2n1`, for which the IC50 in data set [11] was > 100 µM (active).
Same read-out and setting: with `O=C(O)CN1C(=O)CSc2ccccc21` the figure was > 100 µM (active).

Usually IC50 stands for the concentration that gives 50% inhibition. One may read the AC50 as the midpoint of the concentration-response curve, whichever way the signal moves. Broadly, the CC50 is the concentration at which the toxic effect on the cells reaches its halfway point. For orientation: EC50 means the concentration needed to bring the measured effect to its halfway point.
